In patent publication US12624017B2, “Salt form of isoquinolinone type compound as rock inhibitor and preparation method therefor” (GUANGZHOU OCUSUN OPHTHALMIC BIOTECHNOLOGY CO., LTD., priority 2020, dated 2026):

System: New Zealand rabbits with normal intraocular pressure
Experiment: Intraocular pressure reduction, normal intraocular pressure, eye drops in both eyes for 14 days (Operation I)
Type: in vivo, New Zealand white rabbits
Settings: for Change in intraocular pressure: vs negative control
Description: An intraocular pressure reduction effect and potential ocular toxicity of the compound of formula (I) were inspected with rabbits with normal intraocular pressure by repeated administration of eye drops for 14 days.
Male New Zealand white rabbits, aged 97 to 127 days, weighted 2.6-3.5 kg, purchased from Pizhou Oriental Breeding Co., Ltd.
The Male New Zealand white rabbits were randomly divided into 7 groups according to body weights, 6 rabbits/group. The animals in Groups 1 to 7 were administrated dropwise with a solvent/control/test article in both eyes in an administration volume of 50 μL/eye, once a day for 14 consecutive days, and the day of first administration was recorded as Day 1. The intraocular pressures of the animals were measured before administration, as well as at 1, 2, 4, 6, 8 and 10 h after administration, respectively. On Days 2 to 14, the intraocular pressures of animals in the K-115 administration group were measured at 1 h after daily administration; and intraocular pressures of the animals in the remaining groups were measured at 4 h after daily administration.

[1] = 0.5 mg/mL once a day, Day 2, 4 h after daily administration
[2] = 0.5 mg/mL once a day, Day 3, 4 h after daily administration
[3] = 0.5 mg/mL once a day, Day 4, 4 h after daily administration
[4] = 0.5 mg/mL once a day, Day 5, 4 h after daily administration
[5] = 0.5 mg/mL once a day, Day 6, 4 h after daily administration
[6] = 0.5 mg/mL once a day, Day 7, 4 h after daily administration
[7] = 0.5 mg/mL, Day 1, 1 h after administration
[8] = 0.5 mg/mL, Day 1, 2 h after administration
[9] = 0.5 mg/mL, Day 1, 4 h after administration
[10] = 0.5 mg/mL, Day 1, 6 h after administration
[11] = 0.5 mg/mL, Day 1, 8 h after administration
[12] = 0.5 mg/mL, Day 1, 10 h after administration
[13] = 0.5 mg/mL, Day 1, before administration
[14] = 1.0 mg/mL once a day, Day 2, 4 h after daily administration
[15] = 1.0 mg/mL once a day, Day 3, 4 h after daily administration
[16] = 1.0 mg/mL once a day, Day 4, 4 h after daily administration
[17] = 1.0 mg/mL once a day, Day 5, 4 h after daily administration
[18] = 1.0 mg/mL once a day, Day 6, 4 h after daily administration
[19] = 1.0 mg/mL once a day, Day 7, 4 h after daily administration
[20] = 1.0 mg/mL, Day 1, 1 h after administration
[21] = 1.0 mg/mL, Day 1, 2 h after administration
[22] = 1.0 mg/mL, Day 1, 4 h after administration
[23] = 1.0 mg/mL, Day 1, 6 h after administration
[24] = 1.0 mg/mL, Day 1, 8 h after administration
[25] = 1.0 mg/mL, Day 1, 10 h after administration
[26] = 1.0 mg/mL, Day 1, before administration
[27] = 2.0 mg/mL once a day, Day 2, 4 h after daily administration
[28] = 2.0 mg/mL once a day, Day 3, 4 h after daily administration
[29] = 2.0 mg/mL once a day, Day 4, 4 h after daily administration
[30] = 2.0 mg/mL once a day, Day 5, 4 h after daily administration
[31] = 2.0 mg/mL once a day, Day 6, 4 h after daily administration
[32] = 2.0 mg/mL once a day, Day 7, 4 h after daily administration

## Cc1ccc(C(=O)OCn2cc(C)c3c(S(=O)(=O)N4CC[C@H](N)C4)cccc3c2=O)c(C)c1 [Compound of formula (I)]
[1]
  Average intraocular pressure in both eyes: 7.94 mmHg
  Change in intraocular pressure: 3.14 mmHg
[2]
  Average intraocular pressure in both eyes: 7.31 mmHg
  Change in intraocular pressure: 3.08 mmHg
[3]
  Average intraocular pressure in both eyes: 7.78 mmHg
  Change in intraocular pressure: 2.83 mmHg
[4]
  Average intraocular pressure in both eyes: 7.19 mmHg
  Change in intraocular pressure: 3.78 mmHg
[5]
  Average intraocular pressure in both eyes: 6.61 mmHg
  Change in intraocular pressure: 2.7 mmHg
[6]
  Average intraocular pressure in both eyes: 6.00 mmHg
  Change in intraocular pressure: 4.06 mmHg
0.5 mg/mL once a day, Day 8, 4 h after daily administration
  Change in intraocular pressure: 4.2 mmHg
0.5 mg/mL once a day, Day 9, 4 h after daily administration
  Change in intraocular pressure: 3.25 mmHg
0.5 mg/mL once a day, Day 10, 4 h after daily administration
  Change in intraocular pressure: 3 mmHg
0.5 mg/mL once a day, Day 11, 4 h after daily administration
  Change in intraocular pressure: 3.25 mmHg
0.5 mg/mL once a day, Day 12, 4 h after daily administration
  Change in intraocular pressure: 3.28 mmHg
0.5 mg/mL once a day, Day 13, 4 h after daily administration
  Change in intraocular pressure: 3.31 mmHg
0.5 mg/mL once a day, Day 14, 4 h after daily administration
  Change in intraocular pressure: 3.72 mmHg
[7]
  Average intraocular pressure in both eyes: 8.83 mmHg
  Change in intraocular pressure: 1.48 mmHg
[8]
  Average intraocular pressure in both eyes: 7.56 mmHg
  Change in intraocular pressure: 3.41 mmHg
[9]
  Average intraocular pressure in both eyes: 7.11 mmHg
  Change in intraocular pressure: 4.2 mmHg
[10]
  Average intraocular pressure in both eyes: 9.61 mmHg
  Change in intraocular pressure: 2.33 mmHg
[11]
  Average intraocular pressure in both eyes: 9.06 mmHg
  Change in intraocular pressure: 3.91 mmHg
[12]
  Average intraocular pressure in both eyes: 9.97 mmHg
  Change in intraocular pressure: 4.45 mmHg
[13]
  Average intraocular pressure in both eyes: 10.11 mmHg
  Change in intraocular pressure: −0.22 mmHg
[14]
  Average intraocular pressure in both eyes: 7.64 mmHg
  Change in intraocular pressure: 3.44 mmHg
[15]
  Average intraocular pressure in both eyes: 7.50 mmHg
  Change in intraocular pressure: 2.89 mmHg
[16]
  Average intraocular pressure in both eyes: 7.33 mmHg
  Change in intraocular pressure: 3.28 mmHg
[17]
  Average intraocular pressure in both eyes: 7.44 mmHg
  Change in intraocular pressure: 3.53 mmHg
[18]
  Average intraocular pressure in both eyes: 6.92 mmHg
  Change in intraocular pressure: 2.39 mmHg
[19]
  Average intraocular pressure in both eyes: 7.00 mmHg
  Change in intraocular pressure: 3.06 mmHg
1.0 mg/mL once a day, Day 8, 4 h after daily administration
  Change in intraocular pressure: 4.03 mmHg
1.0 mg/mL once a day, Day 9, 4 h after daily administration
  Change in intraocular pressure: 2.5 mmHg
1.0 mg/mL once a day, Day 10, 4 h after daily administration
  Change in intraocular pressure: 2.44 mmHg
1.0 mg/mL once a day, Day 11, 4 h after daily administration
  Change in intraocular pressure: 2.19 mmHg
1.0 mg/mL once a day, Day 12, 4 h after daily administration
  Change in intraocular pressure: 2.64 mmHg
1.0 mg/mL once a day, Day 13, 4 h after daily administration
  Change in intraocular pressure: 3.33 mmHg
1.0 mg/mL once a day, Day 14, 4 h after daily administration
  Change in intraocular pressure: 3.53 mmHg
[20]
  Average intraocular pressure in both eyes: 7.08 mmHg
  Change in intraocular pressure: 3.23 mmHg
[21]
  Average intraocular pressure in both eyes: 6.67 mmHg
  Change in intraocular pressure: 4.3 mmHg
[22]
  Average intraocular pressure in both eyes: 6.44 mmHg
  Change in intraocular pressure: 4.87 mmHg
[23]
  Average intraocular pressure in both eyes: 8.00 mmHg
  Change in intraocular pressure: 3.94 mmHg
[24]
  Average intraocular pressure in both eyes: 9.22 mmHg
  Change in intraocular pressure: 3.75 mmHg
[25]
  Average intraocular pressure in both eyes: 10.56 mmHg
  Change in intraocular pressure: 3.86 mmHg
[26]
  Average intraocular pressure in both eyes: 9.94 mmHg
  Change in intraocular pressure: −0.05 mmHg
[27]
  Average intraocular pressure in both eyes: 7.03 mmHg
  Change in intraocular pressure: 4.05 mmHg
[28]
  Average intraocular pressure in both eyes: 7.25 mmHg
  Change in intraocular pressure: 3.14 mmHg
[29]
  Average intraocular pressure in both eyes: 6.86 mmHg
  Change in intraocular pressure: 3.75 mmHg
[30]
  Average intraocular pressure in both eyes: 6.47 mmHg
  Change in intraocular pressure: 4.5 mmHg
[31]
  Average intraocular pressure in both eyes: 5.92 mmHg
  Change in intraocular pressure: 3.39 mmHg
[32]
  Average intraocular pressure in both eyes: 5.78 mmHg
  Change in intraocular pressure: 4.28 mmHg
2.0 mg/mL once a day, Day 8, 4 h after daily administration
  Change in intraocular pressure: 4.53 mmHg
2.0 mg/mL once a day, Day 9, 4 h after daily administration
  Change in intraocular pressure: 3.72 mmHg
2.0 mg/mL once a day, Day 10, 4 h after daily administration
  Change in intraocular pressure: 3.81 mmHg
2.0 mg/mL once a day, Day 11, 4 h after daily administration
  Change in intraocular pressure: 3.66 mmHg
2.0 mg/mL once a day, Day 12, 4 h after daily administration
  Change in intraocular pressure: 3.5 mmHg
2.0 mg/mL once a day, Day 13, 4 h after daily administration
  Change in intraocular pressure: 4.28 mmHg
